Reference: US8158792B2, “Spiropiperidines for use as tryptase inhibitors” (Janssen Pharmaceutica N.V., priority 2007, dated 2012)

Target: human lung tryptase
Test: β-Tryptase In-Vitro Enzyme Assay
Format: biochemical
Conditions: human lung tryptase 1 nM, substrate H-D-HHT-Ala-Arg-pNa 500 μM, pH 7.4, room temperature
Protocol: The β-tryptase assay was conducted with human lung tryptase (Cortex Biochem #CP3033) in an aqueous buffer (10 mM Tris, 10 mM Hepes, 150 mM NaCl, 0.1% PEG 8000, pH 7.4) using the chromogenic substrate H-D-HHT-Ala-Arg-pNa. […] Percent inhibition was calculated by comparing the initial reaction velocity of samples without inhibitor to those with inhibitor. The initial reaction velocities were analyzed using Microsoft Excel.

Structure (SMILES)	IC50 [nM]
NCc1ccc2c(c1)C1(CCN(C(=O)c3sc4cc(Br)ccc4c3Cl)CC1)CO2 [Cpd 230, 1-(3-chloro-6-bromo-benzo[b]thien-2-yl)carbonyl-5′-aminomethyl-spiro[piperidine-4,3′-(2H)-benzo[b]furan]]	140
NCc1ccc2c(c1)C1(CCN(C(=O)c3cccc(OC(F)(F)F)c3)CC1)CO2 [Cpd 60, 1-(3-trifluoromethoxy-phenyl)carbonyl-5′-aminomethyl-spiro[piperidine-4,3′-(2H)-benzo[b]furan]]	2100
NCc1cc2c(cc1F)OCC21CCN(C(=O)c2ccc(Cl)c(Cl)c2)CC1 [Cpd 308, 1-(3,4-dichlorophenyl)carbonyl-5′-aminomethyl-6′-fluoro-spiro[piperidine-4,3′-(2H)-benzo[b]furan]]	7300
NCc1ccc2c(c1)C1(CCN(C(=O)c3cccs3)CC1)CO2 [Cpd 159, 1-thien-2-ylcarbonyl-5′-aminomethyl-spiro[piperidine-4,3′-(2H)-benzo[b]furan]]	210
NCc1ccc2c(c1)C1(CCN(C(=O)/C=C/c3ccc(OCc4ccccc4)cc3)CC1)CO2 [Cpd 300, (E)-1-(4-benzyloxy-phenylethenyl)carbonyl-5′-aminomethyl-spiro[piperidine-4,3′-(2H)-benzo[b]furan]]	1500
NCc1ccc2c(c1)C1(CCN(C(=O)Cc3ccc4c(c3)OCO4)CC1)CO2 [Cpd 100, 1-benzodioxol-5-ylmethylcarbonyl-5′-aminomethyl-spiro[piperidine-4,3′-(2H)-benzo[b]furan]]	680
NCc1ccc2c(c1)C1(CCN(C(=O)C#Cc3ccccc3)CC1)CO2 [Cpd 108, 1-(phenylethynyl)carbonyl-5′-aminomethyl-spiro[piperidine-4,3′-(2H)-benzo[b]furan]]	250
NCc1ccc2c(c1)C1(CCN(C(=O)/C=C/c3ccccn3)CC1)CO2 [Cpd 252, (E)-1-(pyridin-2-ylethenyl)carbonyl-5′-aminomethyl-spiro[piperidine-4,3′-(2H)-benzo[b]furan]]	1600
NCc1ccc2c(c1)C1(CCN(C(=O)[C@@H]3C[C@H]3c3ccccc3)CC1)CO2 (relative stereo) [Cpd 141, 1-(trans-2-phenyl-cyclopropyl)carbonyl-5′-aminomethyl-spiro[piperidine-4,3′-(2H)-benzo[b]furan]]	480
Cc1nc(-c2ccccc2)sc1C(=O)N1CCC2(CC1)COc1ccc(CN)cc12 [Cpd 123, 1-(2-phenyl-4-methyl-thiazol-5-yl)carbonyl-5′-aminomethyl-spiro[piperidine-4,3′-(2H)-benzo[b]furan]]	690
NCc1ccc2c(c1)C1(CCN(C(=O)c3cccc(Oc4ccccc4)c3)CC1)CO2 [Cpd 115, 1-(3-phenoxy-phenyl)carbonyl-5′-aminomethyl-spiro[piperidine-4,3′-(2H)-benzo[b]furan]]	240
NCc1ccc2c(c1)C1(CCN(C(=O)c3ccc(Oc4cc(Cl)cc(Cl)c4)o3)CC1)CO2 [Cpd 149, 1-[5-(3,5-dichloro-phenoxy)-furan-2-yl]carbonyl-5′-aminomethyl-spiro[piperidine-4,3′-(2H)-benzo[b]furan]]	110
NCc1ccc2c(c1)C1(CCN(C(=O)c3sc4cc(F)ccc4c3Cl)CC1)CO2 [Cpd 171, 1-(3-chloro-6-fluoro-benzo[b]thien-2-yl)carbonyl-5′-aminomethyl-spiro[piperidine-4,3′-(2H)-benzo[b]furan]]	170
O=C(NCc1ccc2c(c1)C1(CCNCC1)CO2)c1ccc(Cl)c(Cl)c1 [Cpd 2, 5′-(3,4-dichlorophenylcarbonylaminomethyl)-spiro[piperidine-4,3′-(2H)-benzo[b]furan]]	1400
NCc1ccc2c(c1)C1(CCN(C(=O)/C=C/c3ccccc3O)CC1)CO2 [Cpd 272, (E)-1-(2-hydroxy-phenylethenyl)carbonyl-5′-aminomethyl-spiro[piperidine-4,3′-(2H)-benzo[b]furan]]	190
CC(C)(C)c1ccc(C#Cc2ccc(C(=O)N3CCC4(CC3)COc3ccc(CN)cc34)o2)cc1 [Cpd 282, 1-[5-(4-tert-butyl-phenylethynyl)-furan-2-yl]carbonyl-5′-aminomethyl-spiro[piperidine-4,3′-(2H)-benzo[b]furan]]	700
NCc1ccc2c(c1)C1(CCN(C(=O)c3ccc(C(F)(F)F)o3)CC1)CO2 [Cpd 22, 1-(5-trifluoromethyl-furan-2-yl)carbonyl-5′-aminomethyl-spiro[piperidine-4,3′-(2H)-benzo[b]furan]]	2100
NCc1ccc2c(c1)C1(CCN(C(=O)/C=C/c3ccccc3F)CC1)CO2 [Cpd 309, (E)-1-(2-fluoro-phenylethenyl)carbonyl-5′-aminomethyl-spiro[piperidine-4,3′-(2H)-benzo[b]furan]]	100
CC(C)(C)c1ccc(OCc2ccc(C(=O)N3CCC4(CC3)COc3ccc(CN)cc34)o2)cc1 [Cpd 178, 1-[5-(4-tert-butyl-phenoxymethyl)-furan-2-yl]carbonyl-5′-aminomethyl-spiro[piperidine-4,3′-(2H)-benzo[b]furan]]	440
CNNC(=O)CS(=O)(=O)N1CC2(CCN(C(=O)c3ccc(C#Cc4ccccc4)o3)CC2)c2cc(CN)ccc21 [Cpd 349, 1-(5-phenylethynyl-furan-2-yl)carbonyl-1′-(N′-methylhydrazino-carbonylmethyl)sulfonyl-5′-aminomethyl-spiro[piperidine-4,3′-(2H)-indole]]	16
Cc1nn(-c2ccc(C(=O)N3CCC4(CC3)COc3ccc(CN)cc34)o2)c(C)c1Cl [Cpd 221, 1-[5-(3,5-dimethyl-4-chloro-pyrazol-1-yl)-furan-2-yl]carbonyl-5′-aminomethyl-spiro[piperidine-4,3′-(2H)-benzo[b]furan]]	550
NCc1ccc2c(c1)C1(CCN(C(=O)Cc3ccc(F)c(F)c3)CC1)CO2 [Cpd 82, 1-(3,4-difluoro-benzyl)carbonyl-5′-aminomethyl-spiro[piperidine-4,3′-(2H)-benzo[b]furan]]	1300
NCc1ccc2c(c1)C1(CCN(C(=O)c3ccc(CCc4ccccc4)o3)CC1)CO2 [Cpd 107, 1-(5-phenethyl-furan-2-yl)carbonyl-5′-aminomethyl-spiro[piperidine-4,3′-(2H)-benzo[b]furan]]	82

Other lines, results leading:

IC50 [nM]	Structure (SMILES)
7.2	Cc1ccc(C)c(C#Cc2ccc(C(=O)N3CCC4(CC3)COc3ccc(CN)cc34)o2)c1 [Cpd 172, 1-[5-(2,5-dimethyl-phenylethynyl)-furan-2-yl]carbonyl-5′-aminomethyl-spiro[piperidine-4,3′-(2H)-benzo[b]furan]]
54	NCc1ccc2c(c1)C1(CCN(C(=O)c3cc4c(s3)CCCC4)CC1)CO2 [Cpd 163, 1-(5,6,7-trihydro-4H-benzo[b]thien-2-yl)carbonyl-5′-aminomethyl-spiro[piperidine-4,3′-(2H)-benzo[b]furan]]
5.1	NCc1ccc2c(c1)C1(CCN(C(=O)c3sc(SCc4ccccc4)c4c3CCC=C4)CC1)CO2 [Cpd 241, 1-(3-benzylthio-7-hydro-6H-benzo[c]thien-1-yl)carbonyl-5′-aminomethyl-spiro[piperidine-4,3′-(2H)-benzo[b]furan]]
6	NCc1ccc2c(c1)C1(CCN(C(=O)c3nc(-c4cccs4)no3)CC1)CO2 [Cpd 277, 1-(3-thien-2-yl-[1,2,4]oxadiazol-5-yl)carbonyl-5′-aminomethyl-spiro[piperidine-4,3′-(2H)-benzo[b]furan]]
44	CCOC(=O)C(=O)N1CC2(CCN(C(=O)c3ccc(C#Cc4ccccc4)o3)CC2)c2cc(CN)ccc21 [Cpd 329, 1-(5-phenylethynyl-furan-2-yl)carbonyl-1′-(2-ethoxy-1,2-dioxo-ethyl)-5′-aminomethyl-spiro[piperidine-4,3′-(2H)-indole]]
40	CCCOc1sc(C(=O)N2CCC3(CC2)CN(S(=O)(=O)O)c2ccc(CN)cc23)c(C)c1Br [Cpd 346, 1-(3-methyl-4-bromo-5-propoxy-thien-2-yl)carbonyl-1′-hydroxysulfonyl-5′-aminomethyl-spiro[piperidine-4,3′-(2H)-indole]]
4.6	NCc1ccc2c(c1)C1(CCN(C(=O)c3cc(C(N)=O)cc(-c4nc(-c5cccs5)no4)c3)CC1)CO2 [Cpd 284, 1-[3-(3-thien-2-yl-[1,2,4]oxadiazol-5-yl)-5-aminocarbonyl-phenyl]carbonyl-5′-aminomethyl-spiro[piperidine-4,3′-(2H)-benzo[b]furan]]
60	N=C(NN)c1ccc2c(c1)C1(CCN(C(=O)c3ccc(C#Cc4ccccc4)o3)CC1)CO2 [Cpd 307, 1-(5-phenylethynyl-furan-2-yl)carbonyl-5′-[hydrazino(imino)methyl]-spiro[piperidine-4,3′-(2H)-benzo[b]furan]]
13	COc1ccccc1C#Cc1ccc(C(=O)N2CCC3(CC2)COc2ccc(CN)cc23)o1 [Cpd 173, 1-[5-(2-methoxy-phenylethynyl)-furan-2-yl]carbonyl-5′-aminomethyl-spiro[piperidine-4,3′-(2H)-benzo[b]furan]]
82	NCc1ccc2c(c1)C1(CCN(C(=O)c3cc4ccsc4s3)CC1)CO2 [Cpd 233, 1-thieno[2,3-b]thien-2-ylcarbonyl-5′-aminomethyl-spiro[piperidine-4,3′-(2H)-benzo[b]furan]]
5.2	NCc1ccc2c(c1)C1(CCN(C(=O)c3ccc(C#Cc4ccccc4)o3)CC1)CN2S(N)(=O)=O [Cpd 342, 1-(5-phenylethynyl-furan-2-yl)carbonyl-1′-aminosulfonyl-5′-aminomethyl-spiro[piperidine-4,3′-(2H)-indole]]
1.8	NCc1ccc2c(c1)C1(CCN(C(=O)c3sc(SCc4ccccc4)c4ccccc34)CC1)CO2 [Cpd 240, 1-(3-benzylthio-benzo[c]thien-1-yl)carbonyl-5′-aminomethyl-spiro[piperidine-4,3′-(2H)-benzo[b]furan]]
17	Cc1ccc(C)c(OCc2ccc(C(=O)N3CCC4(CC3)COc3ccc(CN)cc34)o2)c1 [Cpd 174, 1-[5-(2,5-dimethyl-phenoxymethyl)-furan-2-yl]carbonyl-5′-aminomethyl-spiro[piperidine-4,3′-(2H)-benzo[b]furan]]
